Values after ≈ are worked out from the molar mass of the structure shown.
Experiments:
[1] = biological target: T1, AChE from electric eel (Electrophorus electricus) (Electrophorus electricus, UniProt O42275); experiment: HPTLC-(Ox)-AChE-I assay, spray method (AChE sprayed onto plates); format: biochemical; conditions: spray method, without oxidation; for IC10 (10% AChE inhibition), best fit / IC20 (20% AChE inhibition), best fit / IC50 (50% AChE inhibition), best fit / IC80 (80% AChE inhibition), best fit: OTPs 100 µL, oxons 10 µL applied, peak heights, n = 3
T1 construct: purchased Sigma-Aldrich GmbH (Steinheim, Germany)
Procedure: LiChrospher 10 × 20 cm HPTLC Silica gel 60 F254s plates (Merck, Darmstadt, Germany) with a layer thickness of 170–190 µm and spherical silica particles with a size of 7 µm were used. The HPTLC plates were immersed twice in 2-propanol for 20 min, each time followed by a drying step at room temperature for 20 min. The plates then were pre-developed with methanol, dried for 20 min at room temperature, heated at 105 °C for 20 min, and stored in a desiccator for further use. The automatic TLC Sampler 4 (ATS 4, CAMAG AG, Muttenz, Switzerland) was used for sample application. The desired sample volumes were sprayed as 6-mm-wide bands onto the HPTLC plates with an application speed of 300 nL/s. The distances of the exterior bands from the edges of the plates were 15 mm. The distance from the bottom edge was 8 mm for all bands. Methanol was used as rinsing solvent. The following further application parameters were used: filling speed 15 µL/s, pre-dosage volume 200 nL, retraction volume 200 nL, rinsing vacuum time 4 s, filling vacuum time 0 s, rinsing cycles 2, and filling cycles 1. The development of the HPTLC plates was realized by the Automated Multiple Development 2 (AMD 2, CAMAG, Muttenz, Switzerland). The OTPs, their oxons, and environmental samples were separated with an eluent mixture of cyclohexane, dichloromethane, and acetone in different proportions and with increasing migration distances (Fig. S2). After each development step, a drying step of 3 min under vacuum followed. The final migration distance was 80 mm and the whole procedure took approximately 45 min. In addition, a simpler development process was used containing only the last step of the previous described method.
The following AChE-I assay was performed in parts according to Mendoza et al., Stütz et al., and Weins and Jork. AChE was buffered in TRIS/HCl at a pH of 7.8 (2.5 U/mL). The AChE solution was either sprayed onto the HPTLC plates with a glass reagent sprayer until the plates were evenly moist (approx. 10 mL) or the plates were immersed in the AChE solution using the Chromatogram Immersion Device 3 (CID 3, CAMAG, Muttenz, Switzerland). The immersion volume, speed, time, and depth were approx. 200 mL, 2.5 cm/s, 2 s, and approx. 85 mm, respectively. Afterward, the plates were placed separately in closed plastic boxes, which contained paper towels moistened with water to gain a saturated atmosphere. An incubation at 37 °C for 5 min followed. The substrate indoxyl acetate was freshly prepared in methanol at a concentration of 20 mg/mL and 5 mL was sprayed onto the HPTLC plates with a glass reagent sprayer. During 45-min incubation time at room temperature, AChE cleaves the substrate into indoxyl and acetate. The indoxyl reacts with oxygen to the blue indigo dye. When AChE was inhibited, no indigo was produced and the spot stayed white. The TLC Scanner 3 (CAMAG, Muttenz, Switzerland) was used to scan each track on the plates at 670 nm using the fluorescence mode without optical filter. The CAMAG-embedded software Wincats (Vers. 1.4.9) was used to provide chromatograms of each track and to evaluate inhibition zones.
Several amounts of an OTP mix and an oxon mix were applied on HPTLC plates (Tab. S2) and tested as described in the “Combination of HPTLC and AChE-inhibition assay” section. Three plates were used for each dilution series. The application volume was 10 µL for investigating OTPs with following oxidation and 100 µL for testing OTPs without following oxidation. The application volume for the oxons was 10 µL. They were tested without oxidation step also in triplicates. The peak heights were used for evaluation. Only peaks that have a signal-to-noise ratio ≥ 3 were considered in the evaluation. The height next to the respective peak defines the noise.

[2] = biological target: T1, AChE from electric eel (Electrophorus electricus); experiment: AChE-inhibition microtiter assay (Ellman, 96-well, with or without NBS oxidation); format: biochemical; conditions: for IC80 / IC20: no oxidation, 4-PL fit, n = 4; for IC80: read-out: IC20 (inhibition concentration for 20% AChE activity), best fit; for IC20: read-out: IC80 (inhibition concentration for 80% AChE activity), best fit
Procedure: Stock solutions (1 mg/mL) of NBS and ascorbic acid were each freshly prepared before the test and then diluted to 10 µg/mL and 100 µg/mL, respectively. The assay was performed with modifications according to Ellman’s method. OTPs, oxons, water, and methanol blanks (15 µL) were each mixed with 15 µL of NBS (10 µg/mL) in a 96-well plate. After an incubation at room temperature for 5 min, the reaction was stopped by adding 15 µL ascorbic acid (100 µg/mL). For the test setup without oxidation, OTPs, oxons, water, and methanol blanks (15 µL) were mixed with 30 µL water per well. Subsequently, 200 µL of a DTNB solution (0.15 mM), buffered in TRIS/HCl at a pH of 7.4, was added to each well of both test setups. Then, 20 µL of an AChE solution (0.5 U/mL), also buffered in TRIS/HCl at a pH of 7.4, was added. An incubation at 30 °C for 30 min without shaking followed. An ATCL solution (0.8 mM) was freshly prepared with water and 30 µL per well was added after incubation. During another incubation at room temperature for 30 min, ATCL was cleaved by AChE into thiocholine and acetic acid. Thiocholine reacts with DTNB to 2-nitro-5-thiobenzoate. The absorbance of the yellow-colored anion was photometrically measured at 405 nm (Sunrise Remote, Tecan Group AG, Männedorf, Schweiz).
Dilution series with eight concentrations of the three OTPs and related oxons (Tab. S1) were freshly prepared from stock solutions (1–10 mg/mL) in methanol. The OTPs and oxons were tested in duplicates with and without prior oxidation in two measurements as described in the “AChE-inhibition microtiter assay” section. Eight water and eight methanol blanks were tested per test setup (oxidation and no oxidation). Of these, two were tested without AChE and two without ATCL. The mean AChE activity (absorption at 405 nm, n = 4) was related to the specific inhibitor dose. The statistic program Prism (version 5.00, Graph Pad Software, San Diego, USA) was used to generate dose–response curves (4-PL fit) and to determine inhibition concentrations (ICs) for the three OTPs and related oxons. The 95% confidence intervals of the curves and the standard deviations of the mean AChE activity were also calculated. The lower boundary of the curves is fixed to 0 and the highest mean activity defines 100%.

T1 sequence (O42275 24-633): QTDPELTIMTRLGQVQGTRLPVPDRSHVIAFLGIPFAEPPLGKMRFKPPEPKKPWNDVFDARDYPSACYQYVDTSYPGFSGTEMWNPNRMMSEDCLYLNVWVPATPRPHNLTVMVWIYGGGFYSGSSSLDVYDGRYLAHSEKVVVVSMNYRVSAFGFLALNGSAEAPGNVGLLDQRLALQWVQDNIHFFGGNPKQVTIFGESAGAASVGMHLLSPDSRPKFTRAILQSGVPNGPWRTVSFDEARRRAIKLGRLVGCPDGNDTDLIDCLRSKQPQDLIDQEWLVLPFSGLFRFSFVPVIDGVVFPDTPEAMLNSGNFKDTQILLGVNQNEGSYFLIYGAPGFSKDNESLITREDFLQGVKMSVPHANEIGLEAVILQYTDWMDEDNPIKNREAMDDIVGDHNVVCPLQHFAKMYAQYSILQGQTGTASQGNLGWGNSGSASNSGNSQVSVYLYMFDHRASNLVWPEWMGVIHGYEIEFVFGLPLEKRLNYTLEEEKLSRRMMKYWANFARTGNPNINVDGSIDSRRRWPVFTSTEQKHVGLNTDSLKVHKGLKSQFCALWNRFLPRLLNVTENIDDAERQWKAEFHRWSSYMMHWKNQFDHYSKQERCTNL

SMILES | LOD spray method (first detected AChE-I peak with signal-to-noise ratio ≥ 3) [1] [ng/spot] | IC10 (10% AChE inhibition), best fit [1] [ng/spot] | IC20 (20% AChE inhibition), best fit [1] [ng/spot] | IC50 (50% AChE inhibition), best fit [1] [ng/spot] | IC80 (80% AChE inhibition), best fit [1] [ng/spot] | IC80 [2] [ng/mL] | IC20 [2] [ng/mL] | IC50 [2] [nM]
CCOP(=O)(OCC)Oc1nc(Cl)c(Cl)cc1Cl [Chlorpyrifos-oxon] | 0.25 | 0.72 | 1.1 | 2.5 | 5.4 | 16 (≈ 0.0478 µM) | 3.8 (≈ 0.0114 µM) | 
CCOC(=O)CC(SP(=O)(OC)OC)C(=O)OCC (stereo not drawn) [Malaoxon, malaoxon] | 0.1 | 0.16 | 0.28 | 0.75 | 2.0 | 42 (≈ 0.134 µM) | 3.5 (≈ 0.0111 µM) | 38.2

— article PMC9124651, “High-performance thin-layer chromatography in combination with an acetylcholinesterase-inhibition bioassay with pre-oxidation of organothiophosphates to determine neurotoxic effects in storm, waste, and surface water” (Analytical and Bioanalytical Chemistry, 2022)
